This note sets out measurements from patent US20220104492A1, “PYRIDAZINIUM COMPOUNDS FOR USE IN A METHOD OF CONTROLLING UNWANTED PLANT GROWTH” (SYNGENTA CROP PROTECTION AG, priority 2019, published 2022).

Common to all, as to experiment: Post-emergence efficacy (glasshouse, spray application)
Assay type in all cases: in vivo

Test [1] has as its system Amaranthus palmeri (AMAPA). The note with it: 312 h, Application rate 500 g/Ha, evaluated after 13 days, 100=total damage to plant, 0=no damage to plant, read-out: Control of weed species after post-emergence application, AMAPA. On the procedure: (§1) Seeds of a variety of test species were sown in standard soil in pots. After cultivation for 14 days (post-emergence) under controlled conditions in a glasshouse (at 24/16° C., day/night; 14 hours light; 65 humidity), the plants were sprayed with an aqueous spray solution derived from the dissolution of the technical active ingredient formula (I) in a small amount of acetone and a special solvent and emulsifier mixture referred to as IF50 (11.12% Emulsogen EL360 TM+44.44% N-methylpyrrolidone+44.44% Dowanol DPM glycol ether), to create a 50 g/l solution which was then diluted to required concentration using a solution of 0.25% or 1% Empicol ESC70 (Sodium lauryl ether sulphate)+1% ammonium sulphate in water as diluent.
(§2) The test plants were then grown in a glasshouse under controlled conditions (at 24/16° C., day/night; 14 hours light; 65% humidity) and watered twice daily. After 13 days the test was evaluated (100=total damage to plant; 0=no damage to plant).
(§3) Ipomoea hederacea (IPOHE), Euphorbia heterophylla (EPHHL), Chenopodium album (CHEAL), Amaranthus palmeri (AMAPA), Lolium perenne (LOLPE), Digitaria sanguinalis (DIGSA), Eleusine indica (ELEIN), Echinochloa crus-galli (ECHCG), Setaria faberi (SETFA)

In test [2] the test system is Chenopodium album (CHEAL). The note with it: 312 h, Application rate 500 g/Ha, evaluated after 13 days, 100=total damage to plant, 0=no damage to plant, read-out: Control of weed species after post-emergence application, CHEAL. The protocol: as §1, §2, §3
In test [3] the test system is Digitaria sanguinalis (DIGSA). The note with it: 312 h, Application rate 500 g/Ha, evaluated after 13 days, 100=total damage to plant, 0=no damage to plant, read-out: Control of weed species after post-emergence application, DIGSA. The protocol: as §1, §2, §3
The test system of test [4] is Echinochloa crus-galli (ECHCG). Conditions: 312 h, Application rate 500 g/Ha, evaluated after 13 days, 100=total damage to plant, 0=no damage to plant, read-out: Control of weed species after post-emergence application, ECHCG. On the procedure:
as §1, §2, §3

A further test concerns Eleusine indica (ELEIN). Conditions: 312 h, Application rate 500 g/Ha, evaluated after 13 days, 100=total damage to plant, 0=no damage to plant, read-out: Control of weed species after post-emergence application, ELEIN. On the procedure:
as §1, §2, §3

In test [5] the test system is Euphorbia heterophylla (EPHHL). Conditions: 312 h, Application rate 500 g/Ha, evaluated after 13 days, 100=total damage to plant, 0=no damage to plant, read-out: Control of weed species after post-emergence application, EPHHL. On the procedure: as §1, §2, §3
In test [6] the test system is Ipomoea hederacea (IPOHE). The note with it: 312 h, Application rate 500 g/Ha, evaluated after 13 days, 100=total damage to plant, 0=no damage to plant, read-out: Control of weed species after post-emergence application, IPOHE. On the procedure:
as §1, §2, §3

A further test concerns Lolium perenne (LOLPE). Conditions: 312 h, Application rate 500 g/Ha, evaluated after 13 days, 100=total damage to plant, 0=no damage to plant, read-out: Control of weed species after post-emergence application, LOLPE. On the procedure: as §1, §2, §3
A further test has as its system Setaria faberi (SETFA). Conditions: 312 h, Application rate 500 g/Ha, evaluated after 13 days, 100=total damage to plant, 0=no damage to plant, read-out: Control of weed species after post-emergence application, SETFA. On the procedure: as §1, §2, §3

For `CN(CC[n+]1ccc(-c2ncccn2)cn1)S(=O)(=O)CC(=O)O` [Compound A30, 2-[methyl-[2-(4-pyrimidin-2-ylpyridazin-1-ium-1-yl)ethyl]-sulfamoyl]acetic acid chloride], the pest or weed control at 500 g/ha came to 100% in [1]; 80% in test [2]; 70% in test [3]; 100% in [4]; 40% in the test on Eleusine indica (ELEIN); 90% in [5]. The pest or weed control at 500 g/ha in [6] stood at 20%; with Lolium perenne (LOLPE) it was 50%; with Setaria faberi (SETFA), 60%.

Consider `CC(=O)N(CC[n+]1ccc(-c2ncccn2)cn1)CC(=O)O` [Compound A31], for which the pest or weed control at 500 g/ha came to 100% in [1]; 90% in [2]; 80% in [3]; 60% in test [4]; 60% in the test on Eleusine indica (ELEIN); 90% in [5]. Also, the pest or weed control at 500 g/ha stood at 50% in test [6], 20% in the test with Lolium perenne (LOLPE) and 60% in the test with Setaria faberi (SETFA).

As to `CC(C)(NC(=O)CC[n+]1ccc(-c2ncccn2)cn1)C(=O)O` [Compound A32], the pest or weed control at 500 g/ha in test [1] is 100%; in test [2] it was 100%; in test [3], 80%; in test [4] it was 70%; in the test on Eleusine indica (ELEIN), 80%; in test [5], 80%. The pest or weed control at 500 g/ha in [6] worked out at 30%; in the test on Lolium perenne (LOLPE), 60%; with Setaria faberi (SETFA), 80%.

As for `O=C(O)CSC[n+]1ccc(-c2ncccn2)cn1` [Compound A33, 2-[(4-pyrimidin-2-ylpyridazin-1-ium-1-yl)methylsulfanyl]acetic acid 2,2,2-trifluoroacetate], the pest or weed control at 500 g/ha (in test [1]; in test [2]; in test [3]; in test [4]; in the test with Eleusine indica (ELEIN); in [5]) was 100% in each case. Also, the pest or weed control at 500 g/ha in test [6] was determined as 40%; in the test on Lolium perenne (LOLPE), 70%; in the test with Setaria faberi (SETFA), 90%.

In the case of `CN(CC(=O)O)C(=O)C[n+]1ccc(-c2ccccn2)cn1` [Compound A34], the pest or weed control at 500 g/ha in test [1] was found to be 90%; in [2], 0%; in test [3], 20%; in test [4] it was 30%; in the test on Eleusine indica (ELEIN), 20%; in test [5], 50%. For the same molecule, the values for the pest or weed control at 500 g/ha (in test [6]; in the test on Lolium perenne (LOLPE); in the test on Setaria faberi (SETFA)) were 40%, 10% and 40%, respectively.

For `O=C(O)CNC(=O)C[n+]1ccc(-c2cnccn2)cn1` [Compound A35], the pest or weed control at 500 g/ha stood at 70% in [1]; 40% in [2]; 100% in [3]; 50% in test [4]; 60% in the test with Eleusine indica (ELEIN); 40% in [5]. Also, the pest or weed control at 500 g/ha was found to be 20% in test [6], 0% in the test with Lolium perenne (LOLPE) and 60% in the test with Setaria faberi (SETFA).

`CC(C)(CC(=O)O)NC(=O)CC[n+]1ccc(-c2ncccn2)cn1` [Compound A36]: the pest or weed control at 500 g/ha in [1] was determined as 100%; in [2], 100%; in test [3], 100%; in [4] it was 40%; in the test with Eleusine indica (ELEIN), 100%; in test [5] it was 90%. Also, the pest or weed control at 500 g/ha was 20% in [6], 90% in the test on Lolium perenne (LOLPE) and 100% in the test on Setaria faberi (SETFA).

In the case of `CC(C)(NC(=O)C[n+]1ccc(-c2ncccn2)cn1)C(=O)O` [Compound A37], the pest or weed control at 500 g/ha is 100% in test [1]; 50% in test [2]; 70% in test [3]; 40% in test [4]; 70% in the test with Eleusine indica (ELEIN); 80% in test [5]. In addition, the pest or weed control at 500 g/ha was found to be 40% in [6], 70% in the test on Lolium perenne (LOLPE) and 80% with Setaria faberi (SETFA).

Take `O=C(CC[n+]1ccc(-c2ncccn2)cn1)NC1(C(=O)O)CC1` [Compound A38]: the pest or weed control at 500 g/ha amounted to 100% in [1]; 100% in [2]; 90% in test [3]; 50% in test [4]; 100% in the test with Eleusine indica (ELEIN); 80% in [5]. Moreover, the results for the pest or weed control at 500 g/ha (in [6]; with Lolium perenne (LOLPE); in the test on Setaria faberi (SETFA)) were 10%, 90% and 100%, respectively.

As to `O=C(O)COC[n+]1ccc(-c2ncccn2)cn1` [Compound A39], the pest or weed control at 500 g/ha worked out at 100% in test [1]; 80% in test [2]; 100% in test [3]; 80% in test [4]; 60% in the test with Eleusine indica (ELEIN); 90% in test [5]. For the same molecule, the pest or weed control at 500 g/ha came out at 80% in [6], 70% with Lolium perenne (LOLPE) and 70% in the test on Setaria faberi (SETFA).
